Results taken from patent US20190117713A1, “ANTIBACTERIAL COMPOSITION” (FermBiotics Holding ApS, priority 2016, published 2019).

System: streptococcus infection
Assay: Treatment of a patient suffering from a streptococcus infection (case report)
Details: treatment repeated 4 times more

phenoxymethylpenicillinsodium
Improvement of streptococcus infection after repeated treatment: no significant improvement
